From US5719152A, “Tricyclic quinoxalinedione derivatives” (Sumitomo Pharmaceuticals Co., Ltd., priority 1993, dated 1998)

Tests used:
NMDA-induced seizure = NMDA-induced seizure model; type: in vivo; details: Mus musculus, ip, 0.5 h; mice; test compound intraperitoneal 30 min before NMDA (5 nmol) i.c.v.; ten mice; read-out: ED50, inhibition of NMDA-induced tonic seizures
Procedure: The compounds of the present invention attenuated strongly NMDA-induced seizure under systemic administrations in the following in vivo model.
NMDA-induced seizure model
Thirty min later following intraperitoneal administration of the test compound (0.3~30 mg/kg) into each of ten mice tested, NMDA (5 nmol) was administered intracerebroventricularly (i.c.v.). […] The activity of the test compound may be shown by the ED50 value.

[1] = system: strychnine-insensitive glycine modulatory site of NMDA (N-methyl D-aspartate) receptors; details: 0.1 mM; rat brain synaptic membrane preparation
Procedure: The activities of the compounds were measured by [^3 H] DCKA and [^3 H] glycine binding inhibition studies as illustrated below.
[^3 H] glycine binding studies
A crude rat brain synaptic membrane preparation was washed three times by centrifugation at 50,000×g for 30 min with 50 mM tris acetate (pH 7.4). The pellets obtained were suspended in 0.23M sucrose solution and stored at -80° C. For binding studies, the frozen suspension was thawed, treated with 0.08% triton X-100 at 2° C. for 10 min, and washed twice by the centrifugation as mentioned above. The synaptic membrane thus prepared (ca. 150~200 μg of protein) was incubated with 10 nM [^3 H] glycine (1.11 TBq/mmol) and the test compound (10 ng/mL~0.1 ng/mL) at 2° C. for 10 min in 50 mM tris acetate (pH 7.4). The incubation was terminated by suction filtration using Whatman GF/B glass filter. The radioactivities bound to the membrane on the filter was measured by scintillation counting. Non-specific binding was calculated by the radioactivities measured under the incubations in the presence of 0.1 mM D-serine.

For Cl.NCc1ccc(NC(=O)C[C@@H]2CCc3cc(Cl)cc4[nH]c(=O)c(=O)n2c34)c(CC(=O)O)c1 [Example 11, (S)-9-Chloro-5-[p-aminomethyl-o-(carboxymethyl)phenylcarbamoylmethyl]-6,7-dihydro-1H, 5H-pyrido[1,2,3-de]quinoxaline-2,3-dione hydrochloride], the ED50 (NMDA-induced seizure) was 3.1 mg/kg.
For Cl.NCc1ccc(NC(=O)C[C@@H]2CCc3cc(Cl)cc4[nH]c(=O)c(=O)n2c34)c(OCC(=O)O)c1 [Example 31, (S)-9-Chloro-5-[p-aminomethyl-o-(carboxymethoxy)phenylcarbamoylmethyl]-6,7-dihydro-1H, 5H-pyrido[1,2,3-de]quinoxaline-2,3-dione hydrochloride], the ED50 (NMDA-induced seizure) was 1 mg/kg.
Molecule Cl.NCc1ccc(NC(=O)C[C@@H]2CCc3cc(Br)cc4[nH]c(=O)c(=O)n2c34)c(OCC(=O)O)c1 [Example 35, (S)-9-Bromo-5-[p-aminomethyl-o-(carboxymethoxy)phenylcarbamoylmethyl]6,7-dihydro-1H, 5H-pyrido[1,2,3-de]quinoxaline-2,3-dione hydrochloride] has an ED50 (NMDA-induced seizure) of 2.1 mg/kg.
In the case of O=C1C[C@@H]2OCC=C3CN4CC[C@]56c7ccccc7N1[C@H]5[C@H]2[C@H]3C[C@H]46 [strychnine], the “inhibition of [3H] glycine binding” value [1] is reported as “not inhibited”.
